{
  "source": "patent US7981443B2",
  "about": "“Method of treating sleep disordered breathing using topiramate” (priority 2000, dated 2011)",
  "key": {"[1]": {"test_system": "obstructive sleep apnoea (OSA)", "experiment": "Double-blind, placebo controlled cross-over study of topiramate in patients with light to moderate OSA", "assay_type": "in vivo", "experimental": "A double-blind, placebo controlled cross-over study of topiramate was undertaken in 2 patients with light to moderate OSA (A/H index, 22 and 35 on previous screening). Topiramate (100 mg b.i.d or corresponding placebo) was administered for 10 days in each cross-over period. A wash-out period of one week was applied between the two treatment periods."}, "carbonic anhydrase": {"test_system": "carbonic anhydrase", "details": "cited from earlier work"}, "[2]": {"test_system": "aminohydroxymethylisoxazole propionic acid (AMPA) glutamate receptor subtype site", "details": "rat hippocampal pyramidal neurones; effect at AMPA site; cited from earlier work"}, "[3]": {"test_system": "N-methyl-D-aspartate (NMDA) mediated glutamate receptor subtype site", "details": "cited from earlier work"}, "[4]": {"test_system": "voltage-gated sodium electrogenesis", "details": "specific action on voltage-gated sodium electrogenesis in certain areas of the nervous system; cited from earlier work"}, "[5]": {"test_system": "glutamate in the hippocampus", "details": "in vivo; cited from earlier work"}},
  "data": [
    {"smiles": "CC1(C)O[C@@H]2[C@@H](CO[C@@]3(COS(N)(=O)=O)OC(C)(C)O[C@@H]23)O1", "note": "[topiramate, 2,3:4,5-di-o-isopropylidene-β-D-fructopyranose sulfamate]", "values": [
      {"measurement": "Blood pressure", "setting": "[1]; between the two study nights (topiramate vs placebo)", "result": "did not differ"},
      {"measurement": "Side effects", "setting": "[1]; during the study period", "result": "No side effects were reported"},
      {"measurement": "A/H index during topiramate", "setting": "[1]; first patient (placebo 24), 100 mg b.i.d for 10 days", "result": 9},
      {"measurement": "A/H index during topiramate", "setting": "[1]; second patient (placebo 33), 100 mg b.i.d for 10 days", "result": 6},
      {"measurement": "Daytime sleepiness", "setting": "[1]; spontaneous reporting by both patients, 100 mg b.i.d for 10 days", "result": "markedly reduced"},
      {"measurement": "Inhibition of the enzyme carbonic anhydrase", "setting": "carbonic anhydrase", "result": "weakly inhibit"},
      {"measurement": "Kainate-elicited excitatory response", "setting": "[2]", "result": "blocked"},
      {"measurement": "Effect at the NMDA mediated glutamate receptor subtype site", "setting": "[3]", "result": "had no effect"},
      {"measurement": "Cellular activity / cellular bursting activity", "setting": "[4]", "result": "dose-dependently reduce cellular activity"},
      {"measurement": "Abnormally high concentrations of glutamate in the hippocampus", "setting": "[5]", "result": "reduce"}
    ]}
  ]
}
